Laboratory results published in patent EP4813993A1, “COMPOUND, PREPARATION METHOD THEREFOR, AND USE THEREOF” (Sichuan Kelun Pharmaceutical Research Institute Co., Ltd., priority 2023, dated 2025).

Experiments:
[1] = Pharmacokinetic study in SD rats; format: in vivo; conditions: for AUC(0-inf) / half-life / Cmax / Tmax / bioavailability: rat
Method: Experimental Example 2: Pharmacokinetic study of compounds in SD rats
Experimental animals: SD rats, male, 6-8 weeks old.
(§1) Compound preparation: 5% (final preparation volume) of DMSO was added to dissolve the test compound, and then 10% (final preparation volume) of Cremophor EL and 85% Saline were sequentially added.
(§2) Experimental design: The test compounds were administered to SD rats as a single dose via intravenous and oral administration, respectively (injection: 2 mg/kg; oral administration: 10 mg/kg; n = 3). The injection group was given free access to food and water. The oral group was fasted overnight (> 12 h) with free access to water, and was fed 4 h after administration. Blood samples were collected from the jugular vein of SD rats at the following time points: 5 min, 15 min, 0.5 h, 1 h, 2 h, 4 h, 8 h, and 24 h after injection administration; 15 min, 0.5 h, 1 h, 2 h, 4 h, 6 h, 8 h, and 24 h after oral administration. The collected blood samples were anticoagulated, placed in an ice bath, and then centrifuged at 6000 g for 5 min to separate plasma. The plasma samples were stored at -70 °C for analysis.
Sample monitoring: The concentrations of the designated compound drugs in plasma were determined by the LC-MS/MS method; the main pharmacokinetic parameters were calculated using the Winnolin 8.3 non-compartmental model.

Nav1.8 channels = biological target: T1, Nav1.8 channels (Homo sapiens, UniProt Q9Y5Y9); experiment: Manual patch-clamp, current of stably overexpressed Nav1.8 channels (resting state voltage program); format: cell-based; conditions: for inhibition at 0.01 µM: concentration of 10 nM, read-out: Inhibition rate %
T1 construct: expressed in transfected cells
Method in brief: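 Whole-cell manual patch clamp on cells stably overexpressing Nav1.8, held at -120 mV and stepped to 0 mV for 50 ms every 20 s (resting-state protocol). Compounds were perfused in ascending concentrations, each for 5 min or until stable; block of peak current was calculated at steady state.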

[2] = Pharmacokinetic study in ICR mice; format: in vivo; conditions: male, mouse, plasma
Method: Experimental Example 3: Pharmacokinetic study of compounds in ICR mice
(§3) Experimental animals: ICR mice, male, 6-8 weeks old.
as §1
as §2, with “The” for “Experimental design: The test compounds were administered to SD rats as a single dose via intravenous and oral administration, respectively (injection: 2 mg/kg; oral administration: 10 mg/kg; n = 3). The”, “of ICR mice” for “of SD rats”, “centrifuged” for “centrifuged at 6000 g”, “plasma was” for “plasma samples were”
Sample test: The concentrations of the designated compound drugs in plasma were determined by the LC-MS/MS method; the main pharmacokinetic parameters were calculated using the Winnolin 8.3 non-compartmental model. Pharmacokinetic test results of some compounds of the present disclosure in ICR mice

[3] = Tissue distribution study (dorsal root ganglia) in ICR mice; format: in vivo; conditions: male, mouse, oral administration 20 mg/kg
Method: Experimental Example 4: Tissue distribution study of compounds in ICR mice
as §3, §1
Experimental design: The test compounds were administered to ICR mice as a single dose via oral administration (20 mg/kg; n = 3, 3 time points). Blood samples were collected at 0.25 h, 2 h, and 12 h after oral administration, followed by sacrifice of the animals. Dorsal root ganglia (DRG) were collected, rinsed with ice-cold normal saline to remove residual blood, blotted dry with absorbent paper, and stored at -70 °C for analysis.
Sample test: The concentrations of the compound drugs in dorsal root ganglia were determined by the LC-MS/MS method.

[4] = test system: acetic acid writhing model; experiment: Mouse acetic acid writhing model; format: in vivo, ICR mice; conditions: for Number of writhing responses: ICR mice, 60 min before 0.8% acetic acid i.p., 30 min observation, Mean + SD, n = 10
Method: Experimental Example 11: Pharmacodynamic effect study of compounds in mouse acetic acid writhing model
Experimental animals: ICR mice, male, 20-24 g.
(§4) Compound preparation: 5% (final preparation volume) of DMSO was added to dissolve the test compound, and then 10% (final preparation volume) of Cremophor EL and 85% Saline were sequentially added; an appropriate amount of Etoricoxib was weighed, 5% (final preparation volume) of DMSO was added to dissolve the test compound, and then 5% (final preparation volume) of HS-15 and 90% Saline were sequentially added.
• 1. The mice were randomly grouped based on the body weight for model establishment, with 10 animals per group. A 0.8% (v/v) acetic acid solution was intraperitoneally injected at an injection volume of 10 mL/kg. • 2. Administration and test
Administration was performed 60 min before modeling. After the acetic acid solution was injected, the number of writhing responses in mice was observed. […] The number of writhing responses was observed and recorded during two intervals: 0-15 min and 15-30 min, with a total observation duration of 30 min. Inhibition rate = (number of writhing responses in control group - number of writhing responses in administration group)/number of writhing responses in control group × 100%. The model control group was given normal saline, the positive control group 1 was given etoricoxib at 20 mg/kg, the positive control group 2 was given VX-548 at 50 mg/kg, and the remaining groups were given the compounds of the present disclosure according to the administration doses in the table below.

formalin pain model = experiment: Rat formalin pain model; format: in vivo, SD rats
Method: Experimental Example 10: Pharmacodynamic effect study of compounds in rat formalin pain model
Experimental animals: SD rats, male, 180-200 g.
as §4, with “added; the tramadol injection was diluted with normal saline to the desired concentration.” for “added.”
Each group consisted of 10 animals, and 50 µL of a 5% formalin solution was injected using a microsyringe into the right plantar region.
2. Administration and test
Based on different pharmacokinetic properties of the drugs, the administration was performed at 0 min, 60 min, and 120 min before modeling. After injection of the formalin, the number of pain responses in the rats was observed. […] Spontaneous pain responses were observed once every 5 min, and the number of pain responses in the rats within 1 min was counted, with a total observation duration of 60 min. Inhibition rate = (number of pain responses in control group - number of pain responses in administration group)/number of pain responses in control group × 100%.
Table 12. Administration information of compounds of the present disclosure in rat formalin model

[5] = in vivo, Oral administration, 10 mg/kg
[6] = male, plasma, Oral administration, 10 mg/kg
[7] = male, plasma, intravenous, Injection, 2 mg/kg

T1 sequence (Q9Y5Y9 whole entry): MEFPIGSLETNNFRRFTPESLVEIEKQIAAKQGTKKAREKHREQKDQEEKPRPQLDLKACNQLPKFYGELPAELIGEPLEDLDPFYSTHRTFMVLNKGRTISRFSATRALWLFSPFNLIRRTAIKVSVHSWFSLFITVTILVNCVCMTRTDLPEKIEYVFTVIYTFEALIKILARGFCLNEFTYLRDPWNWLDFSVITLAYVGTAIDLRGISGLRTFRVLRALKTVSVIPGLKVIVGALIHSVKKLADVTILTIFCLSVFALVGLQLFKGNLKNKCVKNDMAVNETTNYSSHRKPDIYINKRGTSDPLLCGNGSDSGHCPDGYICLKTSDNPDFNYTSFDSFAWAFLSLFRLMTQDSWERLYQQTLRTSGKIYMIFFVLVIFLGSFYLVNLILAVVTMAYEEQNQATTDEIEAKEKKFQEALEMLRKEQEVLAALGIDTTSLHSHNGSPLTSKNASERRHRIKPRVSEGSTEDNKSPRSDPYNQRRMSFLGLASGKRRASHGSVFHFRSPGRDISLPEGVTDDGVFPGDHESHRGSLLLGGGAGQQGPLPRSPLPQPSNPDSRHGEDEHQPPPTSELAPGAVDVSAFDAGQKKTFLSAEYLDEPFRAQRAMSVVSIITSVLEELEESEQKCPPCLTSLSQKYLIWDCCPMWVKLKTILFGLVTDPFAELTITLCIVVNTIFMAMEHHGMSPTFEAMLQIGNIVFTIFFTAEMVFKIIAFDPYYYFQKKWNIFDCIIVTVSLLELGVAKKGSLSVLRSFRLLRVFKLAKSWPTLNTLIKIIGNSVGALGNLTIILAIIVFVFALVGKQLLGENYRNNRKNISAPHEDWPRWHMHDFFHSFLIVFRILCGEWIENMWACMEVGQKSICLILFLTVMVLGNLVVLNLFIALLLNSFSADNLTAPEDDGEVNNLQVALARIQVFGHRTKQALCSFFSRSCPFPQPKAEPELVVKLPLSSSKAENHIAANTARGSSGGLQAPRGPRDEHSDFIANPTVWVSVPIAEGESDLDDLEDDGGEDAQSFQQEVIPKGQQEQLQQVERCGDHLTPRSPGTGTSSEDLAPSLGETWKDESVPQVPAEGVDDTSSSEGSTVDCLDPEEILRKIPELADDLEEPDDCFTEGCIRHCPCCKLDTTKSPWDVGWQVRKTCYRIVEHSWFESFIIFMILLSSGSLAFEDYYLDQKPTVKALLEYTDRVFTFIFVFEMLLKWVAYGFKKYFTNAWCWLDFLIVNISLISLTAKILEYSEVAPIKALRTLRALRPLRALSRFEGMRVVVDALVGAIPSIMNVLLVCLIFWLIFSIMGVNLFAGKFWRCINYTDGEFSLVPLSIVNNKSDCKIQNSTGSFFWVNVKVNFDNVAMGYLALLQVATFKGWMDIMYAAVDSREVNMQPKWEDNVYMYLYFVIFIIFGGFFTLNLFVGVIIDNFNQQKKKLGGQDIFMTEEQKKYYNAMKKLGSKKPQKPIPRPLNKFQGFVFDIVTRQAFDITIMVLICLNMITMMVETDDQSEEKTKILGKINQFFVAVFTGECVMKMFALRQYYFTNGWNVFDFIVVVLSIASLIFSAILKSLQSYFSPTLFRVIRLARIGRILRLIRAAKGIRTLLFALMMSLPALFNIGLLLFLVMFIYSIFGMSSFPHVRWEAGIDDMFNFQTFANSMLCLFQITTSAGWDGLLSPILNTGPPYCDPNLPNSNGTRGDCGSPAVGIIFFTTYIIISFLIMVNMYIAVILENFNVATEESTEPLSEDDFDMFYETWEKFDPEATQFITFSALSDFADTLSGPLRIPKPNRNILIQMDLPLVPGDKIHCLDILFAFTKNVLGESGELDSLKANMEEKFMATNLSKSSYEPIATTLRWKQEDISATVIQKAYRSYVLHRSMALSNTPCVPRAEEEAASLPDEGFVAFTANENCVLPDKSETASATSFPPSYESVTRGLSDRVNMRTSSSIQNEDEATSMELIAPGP

In the case of `COc1c(C2C(C(=O)Nc3ccnc(C(N)=O)c3)OC(C)(C(F)(F)F)C2C)ccc(F)c1F` (racemic) [VX-548(rac)], the AUC(0-inf) ([1]; in vivo, Injection, 2 mg/kg) is reported as 2650 ng·h/mL, the half-life ([1]; in vivo, Injection, 2 mg/kg) is reported as 2.64 h and the AUC(0-inf) [1, 5] is reported as 4970 ng·h/mL. The Cmax [1, 5] was 577 ng/mL, the Tmax [1, 5] was 2 h and the bioavailability [1, 5] was 37.6%. For the same molecule, the half-life [1, 5] was 3.26 h.
Molecule `COc1c([C@@H]2C[C@](C)(C(F)(F)F)S[C@H]2C(=O)Nc2ccc3c(c2)COB3O)ccc(F)c1F` [Compound 119-A, (2R,3S,5R)-3-(3,4-difluoro-2-methoxyphenyl)-N-(1-hydroxy-1,3-dihydrobenzo[c][1,2]oxaborol-5-yl)-5-methyl-5-(trifluoromethyl)tetrahydrothiophene-2-carboxamide] has an IC50 (Nav1.8 channels) of 0.49 nM, an AUC(0-inf) ([2]; Oral administration (p.o.), 20 mg/kg) of 6740 ng·h/mL and an AUC(0-inf) ([2]; iv, Injection (i.v.), 2 mg/kg) of 842 ng·h/mL. The concentration at 0.25 h [3] was 875 ng/g, the concentration at 2 h [3] was 2580 ng/g and the concentration at 12 h [3] was 199 ng/g. For the same molecule, the “Number of writhing responses” value ([4]; Dose 50 mg/kg) was 18 ± 15 and the “inhibition of the writhing effect compared with VX-548” value ([4]; mouse acetic acid writhing model) was “better than VX-548”.
In the case of `COc1c(C2CC(C)(C(F)(F)F)SC2C(=O)Nc2ccnc(C(N)=O)c2)ccc(F)c1F` (centres unmarked) [Compound 139, 4-(3-(3,4-difluoro-2-methoxyphenyl)-5-methyl-5-(trifluoromethyl)tetrahydrothiophene-2-carboxamido)picolinamide], the IC50 (Nav1.8 channels) is reported as 0.2 nM, the inhibition at 0.01 µM (Nav1.8 channels) is reported as 98.2% and the “t1/2, relative to VX-548” value [1] is reported as 2 times. The AUC(0-inf) [1, 6] was 9310 ng·h/mL, the Cmax [1, 6] was 724 ng/mL and the Tmax [1, 6] was 4 h. The bioavailability [1, 6] was 48.5%, the half-life [1, 6] was 6.29 h and the AUC(0-inf) [1, 7] was 3840 ng·h/mL. For the same molecule, the half-life [1, 7] was 4.86 h and the “exposure level after oral administration, relative to VX-548” value ([1]; oral administration) was 2 times.
Work on `COc1c([C@@H]2C[C@](C)(C(F)(F)F)S[C@H]2C(=O)Nc2ccnc(C#N)c2)ccc(F)c1F` [Compound 242-A, (2R,3S,5R)-N-(2-cyanopyridin-4-yl)-3-(3,4-difluoro-2-methoxyphenyl)-5-methyl-5-(trifluoromethyl)tetrahydrothiophene-2-carboxamide] yielded an inhibition at 0.01 µM (Nav1.8 channels) of 97.7%, an AUC(0-inf) ([2]; Oral administration, 10 mg/kg) of 18600 ng·h/mL and an AUC(0-inf) ([2]; iv, Injection (i.v.), 2 mg/kg) of 3480 ng·h/mL. For the same molecule, the concentration at 0.25 h [3] was 597 ng/g, the concentration at 2 h [3] was 6070 ng/g and the concentration at 12 h [3] was 2220 ng/g.
In the case of `Cc1ccc(-c2ncc(Cl)cc2-c2ccc(S(C)(=O)=O)cc2)cn1` [Etoricoxib], the “Number of pain responses 0 min” value (formalin pain model; SD rats, 30 mg/kg p.o. 60 min before 5% formalin, 0 min, Mean + SD, n = 10) is reported as 37.5±9.2, the “Number of pain responses 10 min” value (formalin pain model; SD rats, 30 mg/kg p.o. 60 min before 5% formalin, 10 min, Mean + SD, n = 10) is reported as 2.0±2.4 and the “Number of pain responses 15 min” value (formalin pain model; SD rats, 30 mg/kg p.o. 60 min before 5% formalin, 15 min, Mean + SD, n = 10) is reported as 10.1±4.0. For the same molecule, the “Number of pain responses 30 min” value (formalin pain model; SD rats, 30 mg/kg p.o. 60 min before 5% formalin, 30 min, Mean + SD, n = 10) was 14.3±5.3, the “Number of pain responses 40 min” value (formalin pain model; SD rats, 30 mg/kg p.o. 60 min before 5% formalin, 40 min, Mean + SD, n = 10) was 10.8±6.2 and the “Number of pain responses 50 min” value (formalin pain model; SD rats, 30 mg/kg p.o. 60 min before 5% formalin, 50 min, Mean + SD, n = 10) was 5.1±8.5. The “Number of pain responses 60 min” value (formalin pain model; SD rats, 30 mg/kg p.o. 60 min before 5% formalin, 60 min, Mean + SD, n = 10) was 3.3±3.7, the “analgesic activity in the first and second phases” value (formalin pain model; rat formalin pain model, first phase immediately after injection, second phase about 15-20 min after) was “superior analgesic effects in the first and second phases, respectively” and the “Number of writhing responses” value ([4]; Dose 20 mg/kg) was 29 ± 11.
